According to ChEMBL document CHEMBL5096189, “The Mur Enzymes Chink in the Armour of Mycobacterium tuberculosis cell wall” (Eur J Med Chem, 2021):
Values after ≈ are worked out from the molar mass of the structure shown. Values joined by “and” are separate entries in the source; they are usually repeats but may differ in a detail not shown here. Equal values may be shown once.

Columns and labels:
[1] = Inhibition of Mycobacterium tuberculosis MurE expressed in Escherichia coli BL21(DE3) cells by phosphate release based colorimetric assay
[2] = Inhibition of recombinant Mycobacterium tuberculosis MurE expressed in Pseudomonas putida KT2442 using UDPMurNAc-L-Ala-D-Glu as substrate incubated for 30 mins by HPLC analysis
[3] = test system: Mycobacterium tuberculosis; assay: Antimycobacterial activity against Mycobacterium tuberculosis H37Rv ATCC 27294 assessed as inhibition of bacterial growth incubated for 2 weeks by spot culture growth inhibition assay; type: functional; details: H37Rv ATCC 27294, 336 h
[4] = test system: Mycobacterium tuberculosis; assay: Inhibition of Mycobacterium tuberculosis MurE at 100 uM relative to control
[5] = test system: Mycobacterium tuberculosis; assay: Inhibition of Mycobacterium tuberculosis MurD at 100 uM relative to control
[6] = test system: Mycobacterium tuberculosis; assay: Inhibition of Mycobacterium tuberculosis MurF at 100 uM relative to control
[7] = test system: Mycobacterium tuberculosis; assay: Inhibition of Mycobacterium tuberculosis MurC at 100 uM relative to control
RAW264.7 [8] = assay: Cytotoxicity against mouse RAW264.7 cells assessed as cell growth inhibition incubated for 48 hrs by resazurin staining based fluorometric analysis; type: functional; details: RAW264.7, 48 h
[9] = Selectivity index, ratio of IC50 for cytotoxicity against mouse RAW264.7 cells to MIC for antitubercular activity against Mycobacterium tuberculosis H37Rv ATCC 27294; type: toxicity, cell-based; details: for selectivity ratio: RAW264.7 cells, read-out: Selectivity Index
[10] = test system: Mycobacterium tuberculosis; assay: Antitubercular activity against Mycobacterium tuberculosis H37Rv ATCC 27294 assessed as bacterial growth inhibition; type: functional
[11] = Inhibition of recombinant Mycobacterium tuberculosis MurE expressed in Escherichia coli BL21(DE3) cells using UDP-MurNAc-dipeptide as substrate incubated for 30 mins by phosphate release based colorimetric assay; type: cell-based
[12] = Inhibition of Mycobacterium tuberculosis MurE expressed in Escherichia coli BL21(DE3) cells using UDP-MurNAc-dipeptide as substrate incubated for 30 mins by HPLC analysis
[13] = test system: Mycobacterium tuberculosis; assay: (§1) Inhibition of N-terminal His-tagged Mycobacterium tuberculosis MurC expressed in Escherichia coli BL21 (DE3) cells using UDP-GlcNAc as initial substrate pretreated with compound for 15 mins followed by substrate addition measured after 30 mins in presence of ATP by phosphate release based assay relative to control; details: time 45.0 min
[14] = test system: Mycobacterium tuberculosis; assay: as §1, with “MurA” for “MurC”; details: time 45.0 min
[15] = test system: Mycobacterium tuberculosis; assay: as §1, with “MurB” for “MurC”; details: time 45.0 min
[16] = test system: Mycobacterium tuberculosis; assay: as §1, with “of” for “of N-terminal His-tagged”, “MBP tagged MurD” for “MurC”, “Rosetta-gami” for “BL21”; details: time 45.0 min
[17] = as §1, with “MurE” for “MurC”
[18] = as §1, with “of” for “of N-terminal His-tagged”, “MBP tagged MurF” for “MurC”, “Rosetta-gami” for “BL21”
[19] = test system: Mycobacterium tuberculosis; assay: Antitubercular activity against Mycobacterium tuberculosis H37Rv ATCC 27294 assessed as bacterial growth inhibition incubated for 6 days by MTT assay; type: functional; details: H37Rv ATCC 27294, 144 h, time 6 day
[20] = test system: Mycobacterium tuberculosis; assay: Antitubercular activity against Mycobacterium tuberculosis H37Rv ATCC 9360 assessed as bacterial growth inhibition incubated for 2 weeks by spot culture growth inhibition assay; type: functional; details: H37Rv ATCC 9360, 336 h
[21] = Inhibition of Mycobacterium tuberculosis MurE using UDPMurNAc-L-Ala-D-Glu as substrate incubated for 30 mins by phosphate release based colorimetric assay
RAW264.7 [22] = assay: Cytotoxicity against mouse RAW264.7 cells assessed as cell growth inhibition; type: functional, cell-based

**Q.** For `CCCCCCCCCC#CCC1CC(=O)c2ccccc2N1CCCC` (configuration not stated), which IC50 [1] is on record?
**A.** 235 µM

**Q.** For `Oc1ccc(Br)c2c1C(Cc1cccc3c1OCO3)NCC2` (configuration not stated), which IC50 [2] is on record?
**A.** < 111 µM

**Q.** Which MIC [3] does the source give for `Oc1ccc(I)c2c1C(Cc1cccc3c1OCO3)NCC2` (configuration not stated) here?
**A.** 71 µM (≈ 29.1 µg/mL)

**Q.** And the IC50 [2]?
**A.** < 111 µM

**Q.** Which inhibition [4] does the source give for `CC(=O)N[C@H]1[C@H](OCc2cn(C[C@@H]3O[C@H](n4ccc(=O)[nH]c4=O)[C@@H](O)[C@H]3O)nn2)O[C@H](Cn2cc(CO[C@@H]3O[C@H](CO)[C@@H](O)[C@H](O)[C@H]3NC(C)=O)nn2)[C@@H](O)[C@@H]1O` here?
**A.** 12.5%

**Q.** What about the inhibition [5] of the same compound?
**A.** 5.2%

**Q.** And the inhibition [6]?
**A.** 48.9%

**Q.** And the inhibition [7]?
**A.** 1%

**Q.** With `CCCCCCCC/C=C\CCCCC1CC(=O)c2ccccc2N1C` (configuration not stated) as the compound, how does the IC50 (RAW264.7 [8]) read?
**A.** 24 µg/mL (≈ 67.5 µM)

**Q.** And the selectivity ratio [9]?
**A.** 1

**Q.** What about the MIC [10] of the same compound?
**A.** 28.3 µM (≈ 10.1 µg/mL)

**Q.** What about the IC50 [11] of the same compound?
**A.** 36 µM

**Q.** What about the IC50 [12] of the same compound?
**A.** 95 µM

**Q.** For `NNC(=O)c1ccncc1` [ISONIAZID], which IC50 [2] is on record?
**A.** > 1000 µM

**Q.** What about the IC50 [11] of the same compound?
**A.** > 1000 µM

**Q.** Which inhibition [13] does the source give for `COc1c(O)c2c3c(c1OC)CCN[C@H]3Cc1cc3c(cc1-2)OCO3` [listing 1 of 2 here] here?
**A.** 66%

**Q.** What about the inhibition [14] of the same compound?
**A.** 75%

**Q.** What about the inhibition [15] of the same compound?
**A.** > 100%

**Q.** What about the inhibition [16] of the same compound?
**A.** 88%

**Q.** Which results are given for `CCCCCCCCC/C=C\CCCC1CC(=O)c2ccccc2N1C` (configuration not stated)?
**A.** inhibition [13]: 73%; inhibition [14]: > 100%; inhibition [15]: > 100%; IC50 (RAW264.7 [8]): 24 µg/mL (≈ 67.5 µM); selectivity ratio [9]: 1; inhibition [16]: 85%; MIC [10]: 70.7 µM (≈ 25.1 µg/mL); IC50 [17]: 17 µM; IC50 [11]: 52 µM; IC50 [18]: 25.8 µM; IC50 [12]: 159 µM

**Q.** Which results are given for `COC(=O)N1CCc2c(OC)c(OC)c(O)c3c2[C@@H]1Cc1cc2c(cc1-3)OCO2`?
**A.** MIC [19]: 128 µg/mL (≈ 320 µM); IC50 (RAW264.7 [8]): 67 µg/mL (≈ 168 µM); selectivity ratio [9]: 0.52; IC50 [11]: 75 µM and < 100 µM

**Q.** Which results are given for `CCCCCCCC/C=C/C1CC(=O)c2ccccc2N1C` (configuration not stated)?
**A.** IC50 (RAW264.7 [8]): 24 µg/mL (≈ 80.1 µM); selectivity ratio [9]: 1; MIC [10]: 84 µM (≈ 25.2 µg/mL); IC50 [11]: 70 µM; IC50 [12]: 207 µM

**Q.** Which MIC [19] does the source give for `COc1c(O)c2c3c(c1OC)CCN[C@H]3Cc1cc3c(cc1-2)OCO3` [listing 2 of 2 here] here?
**A.** 64 µg/mL (≈ 187 µM)

**Q.** And the IC50 (RAW264.7 [8])?
**A.** 62 µg/mL (≈ 182 µM)

**Q.** And the “Selectivity Index” value [9]?
**A.** 0.97

**Q.** And the IC50 [11]?
**A.** 67 µM and < 100 µM

**Q.** With `CC(=O)N[C@H]1[C@H](OCc2cnnn2C[C@H]2O[C@@H](n3ccc(=O)[nH]c3=O)[C@H](O)[C@@H]2O)O[C@H](Cn2cc(C(N)=O)nn2)[C@@H](O)[C@@H]1O` as the compound, how does the inhibition [4] read?
**A.** 6.1%

**Q.** And the inhibition [5]?
**A.** 23%

**Q.** And the inhibition [6]?
**A.** 41.8%

**Q.** What about the inhibition [7] of the same compound?
**A.** 12.1%

**Q.** With `Oc1ccc(Br)c2c1C(c1cccc3c1OCO3)NCC2` (configuration not stated) as the compound, how does the IC50 [2] read?
**A.** < 111 µM

**Q.** Which MIC [19] does the source give for `COc1c(O)c2c3c(c1OC)CCN[C@H]3Cc1cc3c(cc1-2)OCO3.Cl` here?
**A.** 4 µg/mL

**Q.** And the IC50 (RAW264.7 [8])?
**A.** 47 µg/mL

**Q.** And the “Selectivity Index” value [9]?
**A.** 12

**Q.** And the IC50 [17]?
**A.** 61.6 µM

**Q.** What about the IC50 [11] of the same compound?
**A.** 57 µM

**Q.** What about the IC50 [18] of the same compound?
**A.** 45.4 µM

**Q.** With `CCCCCCCCCC/C=C/C1CC(=O)c2ccccc2N1C` (configuration not stated) as the compound, how does the IC50 (RAW264.7 [8]) read?
**A.** 24 µg/mL (≈ 73.3 µM)

**Q.** What about the selectivity ratio [9] of the same compound?
**A.** 1

**Q.** What about the MIC [10] of the same compound?
**A.** 30.7 µM (≈ 10.1 µg/mL)

**Q.** What about the IC50 [11] of the same compound?
**A.** 72 µM

**Q.** What about the IC50 [12] of the same compound?
**A.** 187 µM

**Q.** With `C=CC(C)(C)C1C(=O)CC(c2ccccc2)OC1OC` (configuration not stated) as the compound, how does the MIC [20] read?
**A.** 75 µg/mL (≈ 273 µM)

**Q.** And the IC50 [21]?
**A.** 320 µM

**Q.** With `COc1ccc(Br)c2c1C(c1cccc3c1OCO3)NCC2` (configuration not stated) as the compound, how does the MIC [3] read?
**A.** 106 µM (≈ 38.4 µg/mL)

**Q.** What about the IC50 [2] of the same compound?
**A.** 165 µM

**Q.** With `COc1c(O)c2c3c(c1OC)CCNC3Cc1cc3c(cc1-2)OCO3` (configuration not stated) as the compound, how does the MIC [3] read?
**A.** 84 µM (≈ 28.7 µg/mL)

**Q.** And the IC50 [2]?
**A.** 820 µM

**Q.** What about the IC50 (RAW264.7 [22]) of the same compound?
**A.** 352 µM

**Q.** For `CCCCCCCCCCCC#CCC1CC(=O)c2ccccc2N1CCCC` (configuration not stated), which IC50 [1] is on record?
**A.** 200 µM

**Q.** Which IC50 (RAW264.7 [8]) does the source give for `CCCCCCCCCCC/C=C/C1CC(=O)c2ccccc2N1C` (configuration not stated) here?
**A.** 24 µg/mL (≈ 70.3 µM)

**Q.** And the selectivity ratio [9]?
**A.** 1

**Q.** What about the MIC [10] of the same compound?
**A.** 58.9 µM (≈ 20.1 µg/mL)

**Q.** What about the IC50 [11] of the same compound?
**A.** 52 µM

**Q.** What about the IC50 [12] of the same compound?
**A.** 140 µM
